Patent publication US20250114345A1, “COMPOUNDS AND COMPOSITIONS AS CBP/P300 DEGRADERS AND USES THEREOF” (Oncopia Therapeutics, Inc. d/b/a/ SK Life Science Labs, priority 2023, published 2025)

Target: T1, p300 (Homo sapiens, UniProt Q09472)
T1 construct: host or cells: A549 P300 HiBit cells
Assay: P300 degradation, HiBit technology in A549 P300 HiBit cells (2 h)
Type: cell-based
Conditions: 2 hrs post treatment; for Dmax: A549, A549 P300 HiBit cells; for DC50: A549 P300 HiBit cells
Procedure: p300 and CBP degradation potency and Dmax were determined using in cell western (ICW) assay technology in H1299 cells or HiBit technology in A549 HiBit cells.
A549 P300 HiBit and A549 CBP HiBit cells were plated in separate 384-well, TC treated, white-opaque, flat-bottomed microplate. Cells were plated at a cell density of 0.2×10^4 cells per well in assay media comprised of F-12K, 10% heat inactivated FBS, and 1% penicillin/streptomycin. Assay microplates containing HiBit cells were placed in a 37° C., 5% CO2, tissue culture incubator and left to equilibrate overnight. The next day cells were treated with serial dilutions of test compound made up of 10 mM stock solutions in DMSO. 384-Well plates containing treated cells were then placed back into a 37° C., 5% CO2, tissue culture incubator. Assay microplates containing A549 P300 HiBit cells were incubated for 2 hrs post treatment before P300 destruction was assessed, while microplates containing A549 CBP HiBit cells were incubated for 24 hrs post treatment before CBP destruction was determined. On the day of each assay time point, microplates were removed from the tissue culture incubator and prepared HiBit Lytic detection buffer (Promega, cat #N3O40) was added to each plate. Plates were covered with aluminum foil and incubated for ten minutes at room temperature on an orbital shaker. After incubation, luminescent signal of each plate was measured using the Envision instrument (Perkin Elmer).

T1 sequence (Q09472 whole entry): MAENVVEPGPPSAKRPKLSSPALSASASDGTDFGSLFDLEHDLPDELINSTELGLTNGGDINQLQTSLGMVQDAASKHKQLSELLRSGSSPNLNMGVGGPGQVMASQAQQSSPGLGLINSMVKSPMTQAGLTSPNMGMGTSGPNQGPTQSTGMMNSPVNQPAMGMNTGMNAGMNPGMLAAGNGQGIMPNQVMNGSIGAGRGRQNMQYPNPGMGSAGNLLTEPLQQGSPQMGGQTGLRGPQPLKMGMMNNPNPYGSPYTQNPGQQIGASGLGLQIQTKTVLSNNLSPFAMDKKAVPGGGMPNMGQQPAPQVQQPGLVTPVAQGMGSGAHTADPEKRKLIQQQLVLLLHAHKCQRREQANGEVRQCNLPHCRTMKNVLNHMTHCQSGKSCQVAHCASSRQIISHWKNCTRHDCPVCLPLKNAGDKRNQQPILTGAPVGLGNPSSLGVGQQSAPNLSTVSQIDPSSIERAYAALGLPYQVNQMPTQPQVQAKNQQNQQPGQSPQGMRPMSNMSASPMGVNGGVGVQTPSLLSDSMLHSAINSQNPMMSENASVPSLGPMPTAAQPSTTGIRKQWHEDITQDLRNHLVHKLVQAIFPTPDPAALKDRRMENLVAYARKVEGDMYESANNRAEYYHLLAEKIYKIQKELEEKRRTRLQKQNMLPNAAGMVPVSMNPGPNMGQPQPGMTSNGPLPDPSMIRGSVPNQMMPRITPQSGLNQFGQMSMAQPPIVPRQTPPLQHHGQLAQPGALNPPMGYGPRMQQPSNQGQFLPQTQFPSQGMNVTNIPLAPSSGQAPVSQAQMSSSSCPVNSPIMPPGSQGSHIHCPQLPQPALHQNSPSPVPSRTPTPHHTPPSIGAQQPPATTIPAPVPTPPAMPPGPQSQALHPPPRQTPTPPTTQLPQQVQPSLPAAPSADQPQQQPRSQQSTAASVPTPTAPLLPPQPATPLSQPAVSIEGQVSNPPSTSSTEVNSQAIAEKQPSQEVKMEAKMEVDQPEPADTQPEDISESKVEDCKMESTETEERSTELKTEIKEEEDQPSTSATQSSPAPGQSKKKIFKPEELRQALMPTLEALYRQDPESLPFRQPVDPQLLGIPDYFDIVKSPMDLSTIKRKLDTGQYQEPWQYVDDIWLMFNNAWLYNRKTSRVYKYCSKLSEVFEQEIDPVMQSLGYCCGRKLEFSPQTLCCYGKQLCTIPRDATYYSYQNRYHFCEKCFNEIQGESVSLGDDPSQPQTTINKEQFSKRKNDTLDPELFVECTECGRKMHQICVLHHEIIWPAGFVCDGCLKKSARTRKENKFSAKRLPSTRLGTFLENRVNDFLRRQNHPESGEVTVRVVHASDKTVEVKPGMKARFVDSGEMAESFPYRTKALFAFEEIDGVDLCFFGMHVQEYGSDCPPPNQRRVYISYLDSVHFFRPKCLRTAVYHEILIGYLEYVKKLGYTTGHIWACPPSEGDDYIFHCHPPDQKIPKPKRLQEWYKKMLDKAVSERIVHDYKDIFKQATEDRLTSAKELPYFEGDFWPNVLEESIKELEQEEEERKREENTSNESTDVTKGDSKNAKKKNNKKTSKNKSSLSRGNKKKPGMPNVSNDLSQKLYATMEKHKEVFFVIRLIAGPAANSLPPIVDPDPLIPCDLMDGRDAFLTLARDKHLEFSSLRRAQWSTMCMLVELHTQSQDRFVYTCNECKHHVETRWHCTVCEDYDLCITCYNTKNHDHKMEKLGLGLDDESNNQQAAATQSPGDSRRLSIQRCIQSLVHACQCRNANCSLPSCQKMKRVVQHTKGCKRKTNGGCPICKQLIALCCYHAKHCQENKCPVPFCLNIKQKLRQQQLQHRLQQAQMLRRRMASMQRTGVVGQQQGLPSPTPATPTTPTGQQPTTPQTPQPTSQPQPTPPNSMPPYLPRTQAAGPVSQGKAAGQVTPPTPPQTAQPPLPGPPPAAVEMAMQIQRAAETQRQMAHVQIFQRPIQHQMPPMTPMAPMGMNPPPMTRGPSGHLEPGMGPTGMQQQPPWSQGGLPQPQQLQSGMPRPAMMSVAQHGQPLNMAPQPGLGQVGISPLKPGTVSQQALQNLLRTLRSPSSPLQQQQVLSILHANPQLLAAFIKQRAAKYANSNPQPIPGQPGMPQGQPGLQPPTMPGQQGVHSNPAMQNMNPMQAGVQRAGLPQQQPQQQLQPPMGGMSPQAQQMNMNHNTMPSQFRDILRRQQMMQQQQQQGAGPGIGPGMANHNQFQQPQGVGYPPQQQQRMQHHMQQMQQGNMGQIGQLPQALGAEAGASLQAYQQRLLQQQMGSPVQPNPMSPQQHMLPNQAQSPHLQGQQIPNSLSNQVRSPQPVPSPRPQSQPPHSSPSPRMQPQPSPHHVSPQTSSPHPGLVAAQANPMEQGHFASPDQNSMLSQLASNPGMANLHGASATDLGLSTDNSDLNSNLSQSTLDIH

`COc1nn(C2CCC(=O)NC2=O)c2cc(C#CCNC(=O)c3ccc(-c4cc5cccc(-c6cc(C(C)C)c7c(c6)n(C)c(=O)n7C)c5cn4)cn3)ccc12` (stereo not drawn) [Example A4, N-(3-(1-(2,6-Dioxopiperidin-3-yl)-3-methoxy-1H-indazol-6-yl)prop-2-yn-1-yl)-5-(8-(7-isopropyl-1,3-dimethyl-2-oxo-2,3-dihydro-1H-benzo[d]imidazol-5-yl)isoquinolin-3-yl)picolinamide] was tested. Which Dmax did it give?
Its Dmax is over 80%.

And the DC50?
Its DC50 is 10 to 99 nM.

Which Dmax does the source give for `CC(C)c1cc(-c2cccc3cc(-c4ccc(C(=O)NCC#Cc5cc6c(cn5)cnn6C5CCC(=O)NC5=O)nc4)ncc23)cc2c1n(C)c(=O)n2C` (stereo not drawn) [Example A6, N-(3-(1-(2,6-Dioxopiperidin-3-yl)-1H-pyrazolo[4,3-c]pyridin-6-yl)prop-2-yn-1-yl)-5-(8-(7-isopropyl-1,3-dimethyl-2-oxo-2,3-dihydro-1H-benzo[d]imidazol-5-yl)isoquinolin-3-yl)picolinamide] here?
Its Dmax is 60 to 79%.

And the DC50?
The DC50 was 1 to 9.9 nM.

What does the source list for `CC(C)c1cc(-c2cccc3cc(-c4ccc(C(=O)NCC#Cc5ccc6c(C#N)nn(C7CCC(=O)NC7=O)c6c5)nc4)ncc23)cc2c1n(C)c(=O)n2C` (stereo not drawn) [Example A7, N-(3-(3-Cyano-1-(2,6-dioxopiperidin-3-yl)-1H-indazol-6-yl)prop-2-yn-1-yl)-5-(8-(7-isopropyl-1,3-dimethyl-2-oxo-2,3-dihydro-1H-benzo[d]imidazol-5-yl)isoquinolin-3-yl)picolinamide]?
Dmax: > 80%; DC50: 10 to 99 nM

For `Cc1cc2cnn(C3CCC(=O)NC3=O)c2cc1C#CCNC(=O)c1ccc(-c2cc3cccc(-c4cc(C(C)C)c5c(c4)n(C)c(=O)n5C)c3cn2)cn1` (stereo not drawn) [Example A8, N-(3-(1-(2,6-Dioxopiperidin-3-yl)-5-methyl-1H-indazol-6-yl)prop-2-yn-1-yl)-5-(8-(7-isopropyl-1,3-dimethyl-2-oxo-2,3-dihydro-1H-benzo[d]imidazol-5-yl)isoquinolin-3-yl)picolinamide], which Dmax is on record?
Its Dmax is 60 to 79%.

What about the DC50 of the same molecule?
Its DC50 is 10 to 99 nM.

What does the source list for `CC(C)c1cc(-c2cccc3cc(-c4ccc(C(=O)NCC#Cc5cc(N(C)C)c6cnn(C7CCC(=O)NC7=O)c6c5)nc4)ncc23)cc2c1n(C)c(=O)n2C` (stereo not drawn) [Example A9, N-(3-(4-(Dimethylamino)-1-(2,6-dioxopiperidin-3-yl)-1H-indazol-6-yl)prop-2-yn-1-yl)-5-(8-(7-isopropyl-1,3-dimethyl-2-oxo-2,3-dihydro-1H-benzo[d]imidazol-5-yl)isoquinolin-3-yl)picolinamide]?
Dmax: 60 to 79%; DC50: 10 to 99 nM

With `CC(C)c1cc(-c2cccc3cc(-c4ccc(C(=O)NCC#Cc5ccc6cnn(C7CCC(=O)NC7=O)c6n5)nc4)ncc23)cc2c1n(C)c(=O)n2C` (stereo not drawn) [Example A12, N-(3-(1-(2,6-Dioxopiperidin-3-yl)-1H-pyrazolo[3,4-b]pyridin-6-yl)prop-2-yn-1-yl)-5-(8-(7-isopropyl-1,3-dimethyl-2-oxo-2,3-dihydro-1H-benzo[d]imidazol-5-yl)isoquinolin-3-yl)picolinamide] as the molecule, how does the Dmax read?
Its Dmax is 20 to 39%.

What about the DC50 of the same molecule?
The DC50 was 10 to 99 nM.

With `CC(C)c1cc(-c2cccc3cc(-c4ccc(C(=O)NCC#Cc5cnc6ccn(C7CCC(=O)NC7=O)c6c5)nc4)ncc23)cc2c1n(C)c(=O)n2C` (stereo not drawn) [Example A13, N-(3-(1-(2,6-Dioxopiperidin-3-yl)-1H-pyrrolo[3,2-b]pyridin-6-yl)prop-2-yn-1-yl)-5-(8-(7-isopropyl-1,3-dimethyl-2-oxo-2,3-dihydro-1H-benzo[d]imidazol-5-yl)isoquinolin-3-yl)picolinamide] as the molecule, how does the Dmax read?
Its Dmax is over 80%.

What about the DC50 of the same molecule?
The DC50 was 1 to 9.9 nM.

What does the source list for `CC(C)c1cc(-c2cccc3cc(-c4ccc(C(=O)NCC#Cc5ccc6c(c5)nnn6C5CCC(=O)NC5=O)nc4)ncc23)cc2c1n(C)c(=O)n2C` (stereo not drawn) [Example A17, N-(3-(1-(2,6-Dioxopiperidin-3-yl)-1H-benzo[d][1,2,3]triazol-5-yl)prop-2-yn-1-yl)-5-(8-(7-isopropyl-1,3-dimethyl-2-oxo-2,3-dihydro-1H-benzo[d]imidazol-5-yl)isoquinolin-3-yl)picolinamide]?
Dmax: < 20%; DC50: > 1000 nM

For `CC(C)c1cc(-c2cccc3cc(-c4ccc(C(=O)NCC#Cc5ccc6c(C#N)cn(C7CCC(=O)NC7=O)c6c5)nc4)ncc23)cc2c1n(C)c(=O)n2C` (stereo not drawn) [Example A19, N-(3-(3-Cyano-1-(2,6-dioxopiperidin-3-yl)-1H-indol-6-yl)prop-2-yn-1-yl)-5-(8-(7-isopropyl-1,3-dimethyl-2-oxo-2,3-dihydro-1H-benzo[d]imidazol-5-yl)isoquinolin-3-yl)picolinamide], which Dmax is on record?
Its Dmax is 60 to 79%.

What about the DC50 of the same molecule?
The DC50 was 100 to 999 nM.

Which Dmax does the source give for `CC(C)c1cc(-c2cccc3cc(-c4ccc(C(=O)NCC#Cc5cnc6cnn(C7CCC(=O)NC7=O)c6c5)nc4)ncc23)cc2c1n(C)c(=O)n2C` (stereo not drawn) [Example A20, N-(3-(1-(2,6-Dioxopiperidin-3-yl)-1H-pyrazolo[4,3-b]pyridin-6-yl)prop-2-yn-1-yl)-5-(8-(7-isopropyl-1,3-dimethyl-2-oxo-2,3-dihydro-1H-benzo[d]imidazol-5-yl)isoquinolin-3-yl)picolinamide] here?
Its Dmax is 60 to 79%.

What about the DC50 of the same molecule?
Its DC50 is 1 to 9.9 nM.

For `CC(C)c1cc(-c2cccc3cc(-c4ccc(C(=O)NCC#Cc5cc(C#N)c6cnn(C7CCC(=O)NC7=O)c6c5)nc4)ncc23)cc2c1n(C)c(=O)n2C` (stereo not drawn) [Example A21, N-(3-(4-Cyano-1-(2,6-dioxopiperidin-3-yl)-1H-indazol-6-yl)prop-2-yn-1-yl)-5-(8-(7-isopropyl-1,3-dimethyl-2-oxo-2,3-dihydro-1H-benzo[d]imidazol-5-yl)isoquinolin-3-yl)picolinamide], which Dmax is on record?
Its Dmax is 60 to 79%.

And the DC50?
Its DC50 is 100 to 999 nM.

`CC(C)c1cc(-c2cccc3cc(-c4ccc(C(=O)NCC#Cc5cc6c(ccn6C6CCC(=O)NC6=O)cn5)nc4)ncc23)cc2c1n(C)c(=O)n2C` (stereo not drawn) [Example A22, N-(3-(1-(2,6-Dioxopiperidin-3-yl)-1H-pyrrolo[3,2-c]pyridin-6-yl)prop-2-yn-1-yl)-5-(8-(7-isopropyl-1,3-dimethyl-2-oxo-2,3-dihydro-1H-benzo[d]imidazol-5-yl)isoquinolin-3-yl)picolinamide] was tested. Which Dmax did it give?
The Dmax was 20 to 39%.

And the DC50?
The DC50 was 10 to 99 nM.

For `COc1cc(C#CCNC(=O)c2ccc(-c3cc4cccc(-c5cc(C(C)C)c6c(c5)n(C)c(=O)n6C)c4cn3)cn2)cc2c1cnn2C1CCC(=O)NC1=O` (stereo not drawn) [Example A26, N-(3-(1-(2,6-Dioxopiperidin-3-yl)-4-methoxy-1H-indazol-6-yl)prop-2-yn-1-yl)-5-(8-(7-isopropyl-1,3-dimethyl-2-oxo-2,3-dihydro-1H-benzo[d]imidazol-5-yl)isoquinolin-3-yl)picolinamide], which Dmax is on record?
The Dmax was 60 to 79%.

What about the DC50 of the same molecule?
Its DC50 is 10 to 99 nM.

What does the source list for `COc1cc2cnn(C3CCC(=O)NC3=O)c2cc1C#CCNC(=O)c1ccc(-c2cc3cccc(-c4cc(C(C)C)c5c(c4)n(C)c(=O)n5C)c3cn2)cn1` (stereo not drawn) [Example A27, N-(3-(1-(2,6-Dioxopiperidin-3-yl)-5-methoxy-1H-indazol-6-yl)prop-2-yn-1-yl)-5-(8-(7-isopropyl-1,3-dimethyl-2-oxo-2,3-dihydro-1H-benzo[d]imidazol-5-yl)isoquinolin-3-yl)picolinamide]?
Dmax: 60 to 79%; DC50: 1 to 9.9 nM

How did the Dmax turn out when `CC(C)c1cc(-c2cccc3cc(-c4ccc(C(=O)NCC#Cc5ccc6c(CN(C)C)nn(C7CCC(=O)NC7=O)c6c5)nc4)ncc23)cc2c1n(C)c(=O)n2C` (stereo not drawn) [Example A28, N-(3-(3-((Dimethylamino)methyl)-1-(2,6-dioxopiperidin-3-yl)-1H-indazol-6-yl)prop-2-yn-1-yl)-5-(8-(7-isopropyl-1,3-dimethyl-2-oxo-2,3-dihydro-1H-benzo[d]imidazol-5-yl)isoquinolin-3-yl)picolinamide] was run?
The Dmax was 60 to 79%.

What about the DC50 of the same molecule?
The DC50 was 1 to 9.9 nM.
